Measured values as given in patent publication US20100210568A1, “T[…] HORMONE FOR […] APPLICATIONS” (priority 2007, published 2010).

Key:
HCMV strain AD169 = assay: HCMV plaque reduction assay in MRC-5 cells; type: cell-based
From the text: (§1) Cells were split twic a week 1:2.
Ganciclovir was used as positive control.

MRC-5 cells = assay: Cytotoxicity testing in MRC-5 cells (CellTiter 96); type: cell-based, human; settings: 6 days incubation
Procedure: as §1
(§2) For cytotxicity testing, MRC-5 cells were seeded at 2,500 cells/well in 96 well plates using growth medium. […] The following day, peptide was added and tested in duplicates. After a 6 days incubation period, cell viability was measured using CellTiter 96 Solution (Promega). Plates were incubated for additional 4 hours at 37° C.

HIV-1IIIB = assay: HIV-1 antiviral assay (CPE reduction, MTS) in CEM-SS cells; type: cell-based; settings: for antiviral activity of positive control compounds (in words): HIV-1 assay validity; for % CPE reduction in HIV-1 infected CEM-SS cells: test peptide 10 micrograms per ml, 6 days post-infection, MTS
CEM-SS cells = assay: Cytotoxicity (MTS cell viability) in the HIV-1 assay; settings: test peptide 10 micrograms per ml, MTS
HepG2-2.2.15 cells = assay: Cytotoxicity (dye uptake cell viability) in the HBV assay; type: cell-based; settings: % cell control
MRSA = settings: peptide 10 micrograms per ml, visual reading of growth
[1] = tested on: Interleukin-5 (IL-5), spleen cells; assay: Th1/Th2 cytokine profiling assay: IL-5; type: cell-based, Balb/c mice; settings: peptide 10 micrograms per ml; Ovalbumin restimulation 10 micrograms/ml; 72 hours
Streptococcus pneumoniae = Streptococcus pneumoniae assay; type: cell-based; settings: peptide 10 micrograms per ml, visual reading of growth
A549 cells [2] = assay: Cell cycle assay (propidium iodide, FACS); type: cell-based, human; settings: peptide 10 micrograms per ml, 24 hours
[3] = tested on: Human Peripheral Blood Mononuclear Cells (PBMC), T cell proliferation; assay: T cell proliferation assay (PHA, 3H-thymidine); type: cell-based; settings: peptide 10 micrograms per ml; 3 days plus 12 hours 3H-thymidine
[4] = tested on: TNF alpha production in PBMC-derived macrophages; assay: TNF alpha production assay (LPS-stimulated macrophages, ELISA); type: cell-based, human; settings: peptide 10 micrograms per ml, 30 min; lipopolysaccharide 200 ng/ml; overnight
From the text: Not stimulated macrophages served as negative background control.

RAW 264.7 cells = assay: Phagocytosis assay (Fluorescein-labeled Escherichia coli, flow cytometry); type: cell-based, mouse; settings: peptide 10 micrograms per ml; 30 min preincubation, 60 min ingestion
Procedure: RAW 264.7 (Mouse leukaemic monocyte macrophage cell line) cells were obtained from ATCC and grown in RPMI 1640 medium containing 10% FBS. […] After the cells were incubated for additional 60 min at 37° C. and allowed to ingest the Fluorescein-labeled Escherichia coli bacteria, cells were fixed with 1% paraformaldehyde. The samples were then analyzed by flow cytometry to determine the amount of phagocytosis as a function of brightness (the greater the phagocytic activity, the more fluorescence in the macrophage population). Data are reported as % positive and the mean fluorescence intensity (MFI) of positively stained cells.

[5] = tested on: Tumor Necrosis Factor-α (TNF-α), spleen cells; assay: Th1/Th2 cytokine profiling assay: TNF-α; type: cell-based, Balb/c mice; settings: peptide 10 micrograms per ml; Ovalbumin restimulation 10 micrograms/ml; 72 hours
[6] = tested on: Human Peripheral Blood Mononuclear Cells (PBMC), B cell proliferation; assay: B cell proliferation assay (SAC plus Interleukin-2, 3H-thymidine); type: cell-based; settings: peptide 10 micrograms per ml; 3 days plus 12 hours 3H-thymidine
A549 cells [7] = assay: Apoptosis prevention assay (C2 ceramide, Annexin-5); type: cell-based, human; settings: peptide 10 micrograms per ml; 30 min pretreatment, then C2 ceramide
A549 cells [8] = assay: Apoptosis induction assay (Annexin-5); type: cell-based, human; settings: peptide 10 micrograms per ml, 24 hours
[9] = tested on: Interleukin-4 (IL-4), spleen cells; assay: Th1/Th2 cytokine profiling assay: IL-4; type: cell-based, Balb/c mice; settings: peptide 10 micrograms per ml; Ovalbumin restimulation 10 micrograms/ml; 72 hours
[10] = Cytotoxicity testing in MRC-5 cells (CellTiter 96); type: cell-based, human; settings: human, MRC-5 cells (embryonal lung fibroblasts), 6 days incubation, read-out: % Cell Viability
Procedure: as §1, §2

[11] = tested on: cyclic AMP generation in human peripheral blood mononuclear cells (PBMC); assay: cAMP induction assay (ELISA); type: cell-based; settings: 10 min at 37° C.; forskolin 50 micrograms per ml as positive control
Procedure: The cAMP kit was used as an immunoassay for the quantitative determination of cyclic AMP generation in human peripheral blood mononuclear cells (PBMC). PBMC were placed in 96-well microtitier plates (50 microliters of cells at 4×10^6/ml) and 50 microliters of medium alone (background control), forskolin (cAMP positive control; 50 micrograms per ml), or test peptide were added. Plates were mixed and incubated for 10 min at 37° C. and the cells were lysed by the addition of 50 microliters of 3% perchloric acid. NaOH was added to neutralize the samples. Plates were centrifuged for 15 min at 2500 rpm and the supernatants removed. The supernatants (diluted 2-fold in assay buffer) were then assayed for the levels of cAMP by ELISA.

[12] = tested on: hepatitis B virus (HBV) ayw strain in HepG2-2.2.15 cells; assay: HBV experimental assay system (secreted HBV DNA, TaqMan PCR); type: cell-based; settings: test peptide 10 micrograms per ml; six days; HBV DNA in supernatant
HUVEC = assay: Endothelial tube formation assay; type: cell-based, human; settings: peptide 10 micrograms per ml; 20 hours
From the text: Positive control was vehicle only. […] Raw data were expressed as average tubule lenghs in pixels±standard deviation.

[13] = Cytotoxicity (MTS cell viability) in the HIV-1 assay; settings: human, CEM-SS cells
Pseudomonas aeruginosa = Pseudomonas aeruginosa assay; type: cell-based; settings: peptide 10 micrograms per ml, visual reading of growth
[14] = Cytotoxicity (dye uptake cell viability) in the HBV assay; type: cell-based; settings: human, HepG2-2.2.15 cells, % cell control
[15] = tested on: Interleukin-2 (IL-2), spleen cells; assay: Th1/Th2 cytokine profiling assay: IL-2; type: cell-based, Balb/c mice; settings: peptide 10 micrograms per ml; Ovalbumin restimulation 10 micrograms/ml; 72 hours
[16] = tested on: Primary Human endothelial cells (HUVEC); assay: Endothelial cell migration assay; type: cell-based; settings: peptide 10 micrograms per ml; 22 hours
[17] = tested on: Interferon-γ (IFN-γ), spleen cells; assay: Th1/Th2 cytokine profiling assay: IFN-γ; type: cell-based, Balb/c mice; settings: peptide 10 micrograms per ml; Ovalbumin restimulation 10 micrograms/ml; 72 hours

Nc1nc(O)c2ncn(COC(CO)CO)c2n1 [Ganciclovir, reference compound]
antiviral activity of positive control compound (in words) (HCMV strain AD169; HCMV assay validity): expected levels of antiviral activity | % Cell viability (MRC-5 cells): 100%

CC(C)(C)NC(=O)[C@@H]1CN(Cc2cccnc2)CCN1C[C@@H](O)C[C@@H](Cc1ccccc1)C(=O)N[C@H]1c2ccccc2C[C@H]1O [Indinavir]
antiviral activity of positive control compounds (in words) (HIV-1IIIB): expected levels of antiviral activity | % Cell viability (CEM-SS cells): 93%

Nc1ccn([C@@H]2CS[C@H](CO)O2)c(=O)n1 [Compound 3TC, Lamivudine, reference compound]
% Cell viability (HepG2-2.2.15 cells): 95.8%

NC(=O)[C@@H]1CCCN1C(=O)[C@H](Cc1cnc[nH]1)NC(=O)[C@@H]1CCC(=O)N1 [TRH, Pyr-His-Pro-NH2]
% CPE reduction in HIV-1 infected CEM-SS cells (HIV-1IIIB): 0.0% | % inhibition (MRSA): 0.0% | IL-5 spleen cells; TH2 response (% of control) [1]: 67.5 % of control | % inhibition (Streptococcus pneumoniae): 0.0% | Cell cycle analysis G0/G1 (A549 cells [2]): 58.1 | Cell cycle analysis G2/M (A549 cells [2]): 10.7 | Cell cycle analysis S (A549 cells [2]): 31.3 | % of PHA induced Control [3]: 98.6% | % of LPS induction [4]: 106.7% | % of control phagocytosis (RAW 264.7 cells): 131.4% | % plaque reduction (HCMV strain AD169; peptide 10 micrograms per ml, 7-10 days, MRC-5 cells): 0.0% | TNF-a spleen cells; TH1 response (% of control) [5]: 110.7 % of control | % of SAC/IL2 induced control [6]: 106.0% | % prevention of ceramide induced apoptosis (A549 cells [7]): 17.2% | % of induction (A549 cells [8]): 0.7% | IL-4 spleen cells; TH2 response (% of control) [9]: 106.2 % of control | viability at 144 h [10]: 100% | % of Forskolin (positive control) induced cAMP formation [11]: 0.0% | % inhibition of HBV replication in HEP G2 cells [12]: 3.3% | % inhibition of tube formation (HUVEC): 7% | viability at 10 micrograms per ml [13]: 94.6% | % inhibition (Pseudomonas aeruginosa): 0.0% | viability at 144 h, 10 micrograms per ml [14]: 87.4% | IL-2 spleen cells (% of control) [15]: 0.0 % of control | % inhibition of migration [16]: −12% | IFNγ spleen cells; TH1 response (% of control) [17]: 102.0 % of control

Cc1cn([C@H]2C[C@H](N=[N+]=[N-])[C@@H](CO)O2)c(=O)[nH]c1=O [AZT]
antiviral activity of positive control compounds (in words) (HIV-1IIIB): expected levels of antiviral activity | % CPE reduction in HIV-1 infected CEM-SS cells (HIV-1IIIB): 99% | % Cell viability (CEM-SS cells): 97%
